The values below come from ChEMBL document CHEMBL5728572, “Thiadiazole IRAK4 compounds” (2021).

The test deals with T1, Interleukin-1 receptor-associated kinase 4 (Homo sapiens, UniProt Q9NWZ3).
T1 sequence (Q9NWZ3 whole entry): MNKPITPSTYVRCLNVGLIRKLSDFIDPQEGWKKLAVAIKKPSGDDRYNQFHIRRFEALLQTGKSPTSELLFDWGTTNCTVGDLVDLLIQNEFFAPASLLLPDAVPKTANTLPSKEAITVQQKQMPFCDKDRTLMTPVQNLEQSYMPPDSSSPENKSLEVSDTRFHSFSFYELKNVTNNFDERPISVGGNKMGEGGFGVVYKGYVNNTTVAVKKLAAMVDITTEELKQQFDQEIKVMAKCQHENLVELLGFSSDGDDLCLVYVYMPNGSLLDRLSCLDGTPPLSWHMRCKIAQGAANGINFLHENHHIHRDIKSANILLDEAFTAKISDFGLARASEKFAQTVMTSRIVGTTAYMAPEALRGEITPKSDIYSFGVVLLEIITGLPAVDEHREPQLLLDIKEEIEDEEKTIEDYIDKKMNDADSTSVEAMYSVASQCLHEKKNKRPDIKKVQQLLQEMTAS
Kind of test: IRAK4 Biochemical Assay: IRAK4 enzyme (Carna Biosciences, Chuo-ku, Kobe, Japan) activity was measured by detecting phosphorylated peptide substrate formation using an antibody against the phosphorylated peptide substrate. This is a time-resolved fluorescence resonance energy transfer (TR-FRET) immunoassay, based on the STK1 KinEASE Assay (Cisbio, Bedford, Mass.). The assay was designed as a simple two-step, endpoint assay (a 5 μl enzyme reaction followed by 5 μl stop and detect Solution) performed in ProxiPlate-384 Plus plates (Perkin Elmer, Waltham, Mass.). Staurosporine, a non-selective kinase inhibitor was used as a positive control. Compounds diluted in DMSO were spotted into 384 well plates using a Labcyte® Echo 550 Liquid Handling System prior to addition of IRAK4 enzyme and peptide substrate. Reaction solutions were delivered using a Multi-Flo (Bio-Tek Instruments). The enzyme and peptide solution was incubated with compound for 15 minutes at room temp before the reaction was initiated by the addition of ATP. The standard 5 μl reaction mixture contained 500 μM ATP, […] (STK1 Peptide), 0.75 nM of IRAK4 in reaction buffer (50 mM HEPES, pH 7.0, 0.02% NaN3, 0.01% BSA, 0.1 mM Orthovanadate, 5 mM […], 0.025% NP-40, 1 mM DTT). […]. (In general: TR-FRET usually uses a lanthanide donor and a delayed reading to cut background.)

By IC50 is commonly meant the midpoint of a concentration-inhibition curve. With `CC(C)Nc1cc(-c2ccc3cc(C#N)cnn23)ncc1-c1nnc(N2CCCC2)s1`, the IC50 turned out to be 1.8 nM.
